Test results from US20110105397A1, “METHOD FOR TREATING HEART FAILURE WITH STRESSCOPIN-LIKE PEPTIDES” (priority 2009, published 2011).
Like-named read-outs stand apart in the source and are kept apart here.

Columns and labels:
[1] = Nonclinical pharmacokinetics in cynomolgus monkeys; settings: cynomolgus monkey, in vivo
Procedure: A sandwich immunoassay was developed using an affinity purified goat polyclonal antibody, specific to h-SCP that was pre-coated onto a microplate with integrated electrodes. h-SCP molecules present in the sample will bind to the capture polyclonal antibody coated on the plate. After washing away any unbound substances, a sulfo-tagged mouse monoclonal anti-h-SCP antibody was added. This conjugated antibody will bind to the h-SCP molecules captured on the microplate and the quantity of analyte was determined by electrochemiluminescence. The amount of signal generated is directly proportional to the h-SCP concentration in the sample or standard. The standard curve range is 3.125-1600 pg/mL with a quantifiable range from 10-800 pg/mL. A sample volume of 25 μL (in duplicate) is required for this assay. This immunoassay is specific for human and dog stresscopin and human urocortin III (h-UCN3). […] After completion of the analysis, based on a comparison of reference standards between the ELISA and HPLC method, a correction factor of 1.57 was applied to all bioanalytical data.
The nonclinical pharmacokinetics of h-SCP (SEQ ID NO:1) and pegylated stresscopin-like peptides were studied in rats, dogs, and cynomolgus monkeys (cyno). Nonclinical pharmacokinetic studies focused on characterization of IV infusion at pharmacologically relevant dose levels, supplemented with IV and SC bolus and toxicokinetic analysis.

[2] = system: anaesthetized mongrel dogs; test: Hemodynamic, angiographic, echocardiographic profile in anaesthetized healthy dogs, 30-minute IV infusion; type: in vivo, dog; settings: for CO (Cardiac output) / HR (Heart rate) / LV + dP/dt (LV contractility) / LVEDA (LV end diastolic area) / LVEDV (LV end diastolic volume) / LVEF (LV ejection fraction) / LVESA (LV end systolic area) / LVESV (LV end systolic volume) / LVFAS (LV fractional area of shortening) / PSAP (Peak systolic aortic pressure) / SV (Stroke volume): 30 min
Procedure: The effects of h-SCP (SEQ ID NO: 1) on cardiovascular function were also assessed in anaesthetized mongrel dogs following intravenous bolus and 30-minute infusions. Hemodynamic and left ventricular systolic and diastolic function was evaluated using conventional hemodynamic, angiographic, echocardiographic, and radiographic methods with the results summarized in Table 16.
The findings described above were further examined in a study, in which h-SCP (SEQ ID NO:1) was infused over a 30-minute period at the same total doses that were administered by bolus as described above with the results presented in Table 17 and FIGS. 11A & B. As in the case of bolus dosing h-SCP (SEQ ID NO:1) elicited dose- (infusion-) dependent changes in blood pressure, left ventricular systolic and diastolic function, and heart rate. However, at the lower range of the dose- (infusion-) response curve there was a pronounced lessening in the positive chronotropic and blood pressure response with marked and significant increase in cardiac function measured as increased CO and LVEF. […] The corresponding plasma concentration of h-SCP (SEQ ID NO:1) was 4,577 pg/mL.

[3] = female, cyno IV infusion 3 hours, F, 16.7 ng/kg/min
[4] = female, cyno IV infusion 3 hours, F, 33.3 ng/kg/min
[5] = female, cyno IV infusion 3 hours, F, 100 ng/kg/min
[6] = male, cyno IV infusion 3 hours, M, 16.7 ng/kg/min
[7] = male, cyno IV infusion 3 hours, M, 33.3 ng/kg/min
[8] = male, cyno IV infusion 3 hours, M, 100 ng/kg/min

H-TKFTLSLDVPTNIMNLLFNIAKAKNLRAQAAANAHLMAQI-NH2 [SEQ ID NO: 1, TKFTLSLDVPTNIMNLLFNIAKAKNLRAQAAANAHLMAQI-NH2]
time to apparent steady-state plasma concentration after initiation of infusion ([1]; iv): ≤ 1 h
half-life ([1]; monkeys, two-compartment analysis, read-out: alpha-phase half-life (t1/2 alpha)): < 5 min
clearance ([1]; cynomolgus monkeys, 16.7 to 100 ng/kg/min, read-out: clearance values (CL)): 30 to 40 mL/min/kg
Vss ([1]; female, iv): 0.921 L/kg
half-life ([1]; female, iv, 33.3 ng/kg/min, cyno IV infusion 3 hours, F, 33.3 ng/kg/min, read-out: t1/2 alpha): 4 min
half-life ([1]; female, iv, 33.3 ng/kg/min, cyno IV infusion 3 hours, F, 33.3 ng/kg/min, read-out: t1/2 terminal): 14.8 min
Vd ([1]; female, iv, Vss): 0.848 L/kg
half-life ([1]; female, iv, t1/2 alpha): 3.1 min
AUC(0-inf) [1, 3]: 1.31 ng·h/mL
Cmax [1, 3]: 0.613 ng/mL
clearance ([1]; female, cyno IV infusion 3 hours, F, 16.7 ng/kg/min, read-out: CL): 39.7 mL/min/kg
AUC(0-inf) [1, 4]: 2.34 ng·h/mL
Cmax [1, 4]: 0.958 ng/mL
clearance ([1]; female, cyno IV infusion 3 hours, F, 33.3 ng/kg/min, read-out: CL): 42.9 mL/min/kg
Vd ([1]; female, cyno IV infusion 3 hours, F, 33.3 ng/kg/min, read-out: Vss): 0.931 L/kg
AUC(0-inf) [1, 5]: 7.67 ng·h/mL
Cmax [1, 5]: 3.16 ng/mL
clearance ([1]; female, cyno IV infusion 3 hours, F, 100 ng/kg/min, read-out: CL): 39.1 mL/min/kg
Vss ([1]; male, iv): 0.899 L/kg
half-life ([1]; male, iv, 33.3 ng/kg/min, cyno IV infusion 3 hours, M, 33.3 ng/kg/min, read-out: t1/2 alpha): 3.7 min
half-life ([1]; male, iv, 33.3 ng/kg/min, cyno IV infusion 3 hours, M, 33.3 ng/kg/min, read-out: t1/2 terminal): 26 min
Vd ([1]; male, iv, Vss): 0.788 L/kg
half-life ([1]; male, iv, t1/2 alpha): 2.9 min
AUC(0-inf) [1, 6]: 1.73 ng·h/mL
Cmax [1, 6]: 0.873 ng/mL
clearance ([1]; male, cyno IV infusion 3 hours, M, 16.7 ng/kg/min, read-out: CL): 30.2 mL/min/kg
AUC(0-inf) [1, 7]: 3.47 ng·h/mL
Cmax [1, 7]: 1.48 ng/mL
clearance ([1]; male, cyno IV infusion 3 hours, M, 33.3 ng/kg/min, read-out: CL): 29.2 mL/min/kg
Vd ([1]; male, cyno IV infusion 3 hours, M, 33.3 ng/kg/min, read-out: Vss): 0.611 L/kg
AUC(0-inf) [1, 8]: 9.79 ng·h/mL
Cmax [1, 8]: 4.45 ng/mL
clearance ([1]; male, cyno IV infusion 3 hours, M, 100 ng/kg/min, read-out: CL): 30.7 mL/min/kg
CO (Cardiac output) ([2]; IV infusion 22 ng/kg/min): 2.32 L/min
HR (Heart rate) ([2]; IV infusion 22 ng/kg/min): 81.2 beats/min
LV + dP/dt (LV contractility) ([2]; IV infusion 22 ng/kg/min): 1598 mmHg/sec
LVEDA (LV end diastolic area) ([2]; IV infusion 22 ng/kg/min): 12.2 cm^2
LVEDV (LV end diastolic volume) ([2]; IV infusion 22 ng/kg/min): 53.0 mL
LVEF (LV ejection fraction) ([2]; IV infusion 22 ng/kg/min): 54.0%
LVESA (LV end systolic area) ([2]; IV infusion 22 ng/kg/min): 6.3 cm^2
LVESV (LV end systolic volume) ([2]; IV infusion 22 ng/kg/min): 24.5 mL
LVFAS (LV fractional area of shortening) ([2]; IV infusion 22 ng/kg/min): 49%
PSAP (Peak systolic aortic pressure) ([2]; IV infusion 22 ng/kg/min): 95.0 mmHg
SV (Stroke volume) ([2]; IV infusion 22 ng/kg/min): 28.5 mL
CO (Cardiac output) ([2]; IV infusion 43 ng/kg/min): 2.82 L/min
HR (Heart rate) ([2]; IV infusion 43 ng/kg/min): 88.7 beats/min
LV + dP/dt (LV contractility) ([2]; IV infusion 43 ng/kg/min): 1875 mmHg/sec
LVEDA (LV end diastolic area) ([2]; IV infusion 43 ng/kg/min): 11.9 cm^2
LVEDV (LV end diastolic volume) ([2]; IV infusion 43 ng/kg/min): 55.2 mL
LVEF (LV ejection fraction) ([2]; IV infusion 43 ng/kg/min): 57.5%
LVESA (LV end systolic area) ([2]; IV infusion 43 ng/kg/min): 5.8 cm^2
LVESV (LV end systolic volume) ([2]; IV infusion 43 ng/kg/min): 23.5 mL
LVFAS (LV fractional area of shortening) ([2]; IV infusion 43 ng/kg/min): 51.5%
PSAP (Peak systolic aortic pressure) ([2]; IV infusion 43 ng/kg/min): 95.2 mmHg
SV (Stroke volume) ([2]; IV infusion 43 ng/kg/min): 31.7 mL
CO (Cardiac output) ([2]; IV infusion 86 ng/kg/min): 2.81 L/min
HR (Heart rate) ([2]; IV infusion 86 ng/kg/min): 91.0 beats/min
LV + dP/dt (LV contractility) ([2]; IV infusion 86 ng/kg/min): 1622 mmHg/sec
LVEDA (LV end diastolic area) ([2]; IV infusion 86 ng/kg/min): 11.8 cm^2
LVEDV (LV end diastolic volume) ([2]; IV infusion 86 ng/kg/min): 54.2 mL
LVEF (LV ejection fraction) ([2]; IV infusion 86 ng/kg/min): 56.5%
LVESA (LV end systolic area) ([2]; IV infusion 86 ng/kg/min): 5.9 cm^2
LVESV (LV end systolic volume) ([2]; IV infusion 86 ng/kg/min): 23.5 mL
LVFAS (LV fractional area of shortening) ([2]; IV infusion 86 ng/kg/min): 50.0%
PSAP (Peak systolic aortic pressure) ([2]; IV infusion 86 ng/kg/min): 91.7 mmHg
SV (Stroke volume) ([2]; IV infusion 86 ng/kg/min): 30.7 mL
CO (Cardiac output) ([2]; IV infusion 146 ng/kg/min): 2.97 L/min
HR (Heart rate) ([2]; IV infusion 146 ng/kg/min): 102.5 beats/min
LV + dP/dt (LV contractility) ([2]; IV infusion 146 ng/kg/min): 1594 mmHg/sec
LVEDA (LV end diastolic area) ([2]; IV infusion 146 ng/kg/min): 11.5 cm^2
LVEDV (LV end diastolic volume) ([2]; IV infusion 146 ng/kg/min): 49.5 mL
LVEF (LV ejection fraction) ([2]; IV infusion 146 ng/kg/min): 58.2%
LVESA (LV end systolic area) ([2]; IV infusion 146 ng/kg/min): 5.6 cm^2
LVESV (LV end systolic volume) ([2]; IV infusion 146 ng/kg/min): 20.7 mL
LVFAS (LV fractional area of shortening) ([2]; IV infusion 146 ng/kg/min): 51%
PSAP (Peak systolic aortic pressure) ([2]; IV infusion 146 ng/kg/min): 90.0 mmHg
SV (Stroke volume) ([2]; IV infusion 146 ng/kg/min): 28.7 mL
CO (Cardiac output) ([2]; IV infusion 437 ng/kg/min): 3.25 L/min
LV + dP/dt (LV contractility) ([2]; IV infusion 437 ng/kg/min): 1657 mmHg/sec
LVEDA (LV end diastolic area) ([2]; IV infusion 437 ng/kg/min): 10.8 cm^2
LVEDV (LV end diastolic volume) ([2]; IV infusion 437 ng/kg/min): 46.0 mL
LVEF (LV ejection fraction) ([2]; IV infusion 437 ng/kg/min): 60.7%
LVESA (LV end systolic area) ([2]; IV infusion 437 ng/kg/min): 5.1 cm^2
LVESV (LV end systolic volume) ([2]; IV infusion 437 ng/kg/min): 18.2 mL
LVFAS (LV fractional area of shortening) ([2]; IV infusion 437 ng/kg/min): 53.5%
PSAP (Peak systolic aortic pressure) ([2]; IV infusion 437 ng/kg/min): 89.5 mmHg
SV (Stroke volume) ([2]; IV infusion 437 ng/kg/min): 28 mL
HR (Heart rate) ([2]; IV infusion 437 ng/kg/min, junctional tachycardia): 117.3 beats/min
minimum anticipated biological effect level (MABEL) ([2]; healthy dogs): 22 ng/kg/min
infusion rate for minimal effect ([2]; healthy dogs, 30-minute infusion): 43 ng/kg/min
